Results as given in PubChem BioAssay (NCI).
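1) Cells in 96-well plates. 2) Compound, 48 h, 5 concentrations. 3) Linear interpolation between surrounding doses. 4) Unreached endpoint = highest concentration. At the GI50, growth is halved. TGI denotes the concentration required for complete inhibition of growth.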

What was measured:
Assay in all cases: growth of human tumour cells (NCI), 48 h
[1] = tested on: SK-MEL-2 melanoma
[2] = tested on: BT-549 breast
[3] = tested on: U251 CNS
[4] = tested on: TK-10 renal
[5] = tested on: SK-OV-3 ovarian
[6] = tested on: IGROV1 ovarian
[7] = tested on: NCI-H23 lung
[8] = tested on: HOP-92 NSCLC
[9] = tested on: SN12C renal
[10] = tested on: DU-145 prostate

Row | Structure (SMILES) | GI50 [1] [µM] | TGI [1] [µM] | GI50 [2] [µM] | TGI [2] [µM] | GI50 [3] [nM] | TGI [3] [µM] | GI50 [4] [µM] | TGI [4] [µM] | GI50 [5] [µM] | TGI [5] [µM] | GI50 [6] [nM] | TGI [6] [µM] | GI50 [7] [µM] | TGI [7] [µM] | GI50 [8] [nM] | TGI [8] [µM] | GI50 [9] [µM] | TGI [9] [µM] | GI50 [10] [µM] | TGI [10] [µM]
1 | COc1ccc(-c2cs/c(=N\N=C\c3ccc(O)cc3O)n2/N=C/c2ccc(O)cc2O)cc1 | 2.14 | 4.87 | 1.54 | 3.59 | 1860 | 3.91 | 2.46 | 5.1 | 2.31 | 5.02 | 2670 | 6.5 | 1.95 | 4.64 | 2380 | 6.51 | 2.18 | 5.35 | 2.21 | 5.84
2 | CCC(O)c1ccc(Br)cc1NC(=O)c1cccc(Cl)c1 (configuration not stated) | 28.1 | 82.4 | 23.7 | 74.3 | 14100 | 31.8 | 41.7 | > 100 | 23.7 | 64.3 | 17200 | 92.6 | 22.4 | 86.6 | 12100 | 65.6 | 24.4 | > 100 | 34.5 | > 100
3 | CN(CCCCCl)P(=O)(OCCS(=O)(=O)CC(NC(=O)CCC(N)C(=O)O)C(=O)NC(C(=O)O)c1ccccc1)OCC1OC(n2ccc(N)nc2=O)C(F)(F)C1O (configuration not stated) | > 63.7 | > 100 | 0.783 | > 100 | 230 | > 100 | 32.8 | > 100 | 0.784 | > 100 | 58.1 | 25.9 | 0.0483 | 16.8 | 379 | 8.63 | 0.59 | > 50.9 | 0.0359 | 25.9
4 | NCCSSCCN |  | > 100 |  | > 100 |  | > 100 |  | > 100 |  | > 100 |  | > 100 |  | > 100 |  | > 100 |  | > 100 |  | > 100
5 | CC(C)c1c(-c2ccccc2)nc2c(C#N)c[nH]n2c1=O | 27.7 | 78.8 | 26.2 | > 95.5 | 33800 | > 100 | 29.1 | > 100 | 27.2 | > 88.6 | 34300 | > 100 | 26.1 | > 79.6 | 7850 | 49.6 | 29.2 | > 100 | 37.1 | > 100
6 | O=C(Nc1cc(C(F)(F)F)ccc1Cl)c1ccc(NC2=C(Cl)C(=O)N(Cc3ccccc3)C2=O)cc1 | 18.6 | 40.6 | 15 | 39.7 | 22600 | > 100 | 24.7 | 62.3 | > 100 | > 100 | 1990 | 6.41 | 18.9 | 43.9 | 15700 | 56.3 | 19.6 | 61.2 | 26.9 | 80.9
7 | O=C1/C(=C/c2cccc(Br)c2)COc2ccc(O)cc21 | 3.79 | 14.2 | 3.01 | 12.7 | 1490 | 3 | 3.94 | 15.6 | 7.33 | 19.8 | 1920 | 4.75 | 3.79 | 15.6 | 2650 | 13.6 | 1.85 | 4.28 | 4.48 | 16.5
8 | COc1cc(C2SCCCCCCCCCCSC(c3ccc(O)c(OC)c3)SCCCCCCCCCCS2)ccc1O (configuration not stated) |  | > 100 |  | > 100 |  | > 100 |  | > 100 |  | > 100 |  | > 100 |  | > 100 |  | > 100 |  | > 100 |  | > 100
9 | C[C@@H]1C[C@H](C)CN(S(=O)(=O)c2ccc3c(NO)c4ccc(S(=O)(=O)N5C[C@H](C)C[C@H](C)C5)cc4c(N=O)c3c2)C1 | 0.194 | 0.403 | 0.175 | 0.34 | 129 | 0.266 | 0.168 | 0.321 | 0.122 | 0.248 | 210 | 0.461 | 0.185 | 0.4 | 167 | 0.522 | 0.17 | 0.399 | 0.115 | 0.268
10 | COC(=O)c1cc2c3ccccc3n3c(=O)c4cc5ccc(N(S(=O)(=O)c6ccc(C)cc6)S(=O)(=O)c6ccc(C)cc6)cc5nc4c(n1)c23 | 25.9 | > 100 | 35.7 | > 100 | 10100 | 45.2 | 19.4 | 44 | 26.2 | > 100 | 43700 | > 100 | 36.6 | > 100 | 12400 | 34.3 | > 100 | > 100 | > 100 | > 100
11 | CC(=O)c1ccc2c(c1)C1C=CCC1[C@H](c1cc3c(cc1Br)OCO3)N2 (some centres not stated) | 1.22 | 12.4 | 0.716 | 13.8 | 1100 | 11.9 | 2.04 | 37.1 | 1.47 | 17.8 | 1630 | > 64.9 | 2.24 | 33.4 | < 38.5 | 0.479 | 1.64 | > 33 | 0.893 | 4.44
12 | CC(=O)Oc1ccc(C23c4ccccc4C2(OC(C)=O)c2cc(OC(C)=O)ccc23)cc1 (configuration not stated) | 27.7 | 94.3 | 2.76 | 6.49 | 2340 | 5.63 | 6.23 | > 100 | 20.5 | 47.6 | 5860 | 27.2 | 10.2 | 28.5 | 5010 | 20.3 | 5.37 | 20.2 | 6.88 | 20.7
13 | OCc1ccc(N2CCc3cccc(F)c3C2)cc1Cl |  | 30.5 | 16.9 | 36.7 | < 29.7 | 36.3 |  |  | 1.89 | 14.6 | 25 | 0.101 | 13.9 | 40.9 | 87.3 | 14.2 | 14.6 | > 70.2 | 4.5 | 30.3
